{Fethoc} = N-terminal Fethoc capping group (publication's abbreviation); [C(1O2)] = modified PNA monomer acting as cytosine, C(pOq) type, 1O2; [A(5)] = modified PNA monomer acting as adenine, A(p) with p=5; [G(6)] = modified PNA monomer acting as guanine, G(p) with p=6; {NH2} = C-terminal amide; [C(12)] = modified PNA cytosine monomer; {Fmoc} = N-terminal Fmoc cap
Experiments:
[1] = test system: rats with diabetes-induced peripheral neuropathic pain (DPNP); assay: Reversal of allodynia (von Frey) in rats with diabetes-induced peripheral neuropathic pain; format: in vivo, rat; conditions: 100 pmole/Kg subcutaneous in Days 11, 13, 15, 17 and 19
Experimental: “SCN-ASO 7”, “SCN-ASO 8”, “SCN-ASO 21”, “SCN-ASO 35”, “SCN-ASO 36” and “SCN-ASO 37” were evaluated for their ability to reverse the allodynia in rats with diabetes-induced peripheral neuropathic pain (DPNP). In this example, the six SCN9A ASOs targeting a total of five splice sites were evaluated for their ability to reverse the allodynia induced by diabetic neuropathy in rats.
[Induction of DPNP and Grouping] Diabetes was induced in rats by an intraperitoneal injection of streptozotocin at 60 mg/Kg in Day 0. In Day 10, rats with DPNP were randomly assigned to […] of negative control (vehicle only), “SCN-ASO 7” 100 pmole/Kg, “SCN-ASO 8” 100 pmole/Kg, “SCN-ASO 21” 100 pmole/Kg, “SCN-ASO 35” 100 pmole/Kg, “SCN-ASO 36” 100 pmole/Kg, and “SCN-ASO 37” 100 pmole/Kg. The animals were grouped based on the von Frey scores of individual animals in Day 10. (N=8-9 per group) Allodynia was scored using a set of microfilaments (Touch Test®) according to the “Up & Down” method. [J Neurosci. Methods vol 53(1), 55-63 (1994)]
[ASO Treatment and von Frey Scoring] ASO solutions for injection were prepared by serially diluting aqueous mother stock solutions of the SCN9A ASOs to 100 nM in PBS (phosphate buffered saline). Animals were subcutaneously administered with ASO at 1 mL/Kg in Days 11, 13, 15, 17 and 19. Von Frey scoring was carried out 2 hours post dose in Days 11, 13, 15, 17 and 19. Von Frey scoring was additionally performed in Days 21 and 23 in order to assess the duration of the therapeutic activity after the final dosing. Daily von Frey scores were evaluated for statistical significance by student's t-test against the negative control group (vehicle only, i.e., PBS).

complementary 10-mer DNA = assay: Tm of 10-mer model PNA with complementary 10-mer DNA; format: binding; conditions: for Tm: 4 μM PNA and 4 μM complementary 10-mer DNA, aqueous buffer pH 7.16, uncorrected; for ΔTm (Tm value - Tm value of PNA 10-1): complementary 10-mer DNA
Experimental: (§1) The 10-mer PNA oligomers in Table 12 were evaluated for their binding affinity for the complementary 10-mer RNA or DNA by measuring Tm values as described below.
(§2) A mixed solution of 4 μM 10-mer PNA oligomer and 4 μM complementary 10-mer DNA or RNA in 4 mL aqueous buffer (pH 7.16, 10 mM sodium phosphate, 100 mM NaCl) in 15 mL polypropylene falcon tube was incubated at 90° C. for a minute and slowly cooled down to ambient temperature. Then the solution was transferred into a 4 mL quartz UV cuvette, and subjected to Tm measurement at 260 nm on a UV/Visible spectrophotometer as described in the prior art [PCT/KR2009/001256] or with minor modifications. The DNA and RNA for Tm measurement were purchased from Bioneer (www.bioneer.com, Dajeon, Republic of Korea) and used without further purification.

complementary 10-mer RNA = assay: Tm of 10-mer model PNA with complementary 10-mer RNA; format: binding; conditions: for Tm: 4 μM PNA and 4 μM complementary 10-mer RNA, aqueous buffer pH 7.16, uncorrected; for ΔTm (Tm value - Tm value of PNA 10-1): complementary 10-mer RNA
Experimental: as §1, §2

10-mer complementary DNA = assay: Tm between PNA derivatives and 10-mer complementary DNA (N- or C-terminal); format: binding; conditions: uncorrected
Experimental: as §2
PNA derivatives of Formula I were evaluated for their binding affinity for 10-mer DNAs complementarily targeting either the N-terminal or C-terminal. The binding affinity was assessed by the Tm value for the duplex between PNA and 10-mer complementary DNA. The duplex between PNA derivatives and DNAs of full complementarity usually show Tm values too high to be reliably determined in aqueous buffer solution. The aqueous buffer solution tends to boil off during Tm measurement.

SCN9A mRNA = assay: SCN9A nested qPCR by SYBR Green in PC3 cells; format: cell-based, human; conditions: PC3 cells, 24 hours
Experimental: “SCN-ASO 7” was evaluated for its ability to inhibit the expression of the human SCN9A mRNA in PC3 cells by qPCR against a set of exon-specific primers as follows. [Cell Culture & ASO Treatment] PC3 cells grown in 60 mm culture dish containing 5 mL culture medium were incubated with “SCN-ASO 7” for 24 hours at 0 (negative control), 10, 100 or 1,000 zM. (2 culture dishes per concentration) [RNA Extraction] […] [cDNA Synthesis by One Step RT-PCR] […] NO: 78); and SCN-exon 9_reverse: (5'→3') […] NO: 79)]. […] [Nested qPCR Amplification] […] NO: 80); SCN-exon 4_reverse: (5'→3') […] NO: 81); SCN-exon 5_forward: (5'→3') […] NO: 82); SCN-exon 5_reverse: (5'→3') […] NO: 83); SCN-exon 6_forward: (5'→3') […] NO: 84); SCN-exon 6_reverse: (5'→3') […] NO: 85)]. The PCR reactions were probed with SYBR Green (Takara, Japan). […] “SCN-ASO 3” was evaluated for its ability to inhibit the expression of the full-length SCN9A mRNA in PC3 cells according to the protocol described in “SCN9A Example 2”, unless noted otherwise. “SCN-ASO 8” was evaluated for its ability to inhibit the expression of the full-length SCN9A mRNA in PC3 cells according to the protocol described in “SCN9A Example 2”, unless noted otherwise.

[2] = test system: sodium current in PC3 cells; assay: CoroNa assay of sodium current in PC3 cells; format: cell-based, human; conditions: 30 hours
Experimental: Cellular sodium current is measured by patch clamp. As sodium ions enter cell, the intra-cellular sodium ion level increases. The intra-cellular sodium level can be probed using a sodium ion sensitive dye. “CoroNa Green” is a dye with a sodium ion chelator of crown ether type. Upon chelation with a sodium ion, “CoroNa Green” emits green fluorescence. “CoroNa Green” has been used to indirectly measure the intra-cellular sodium level. […] [Proc. Natl. Acad. Sci. USA vol 106(38), 16145-16150 (2009)]
PC3 cells are known to abundantly express the human SCN9A mRNA, although there are other SCN subtypes concomitantly expressed. [Br J. Pharmacol. vol 156, 420-431 (2009)] Thus an inhibition of SCN9A mRNA expression may lead to a considerable reduction of the sodium current in PC3 cells, if the sodium ion current by the Nav1.7 sodium channel subtype occupies a marked portion of the total sodium ion current in PC3 cells. It is note that the SCN9A mRNA encodes the Nav1.7 sodium channel subtype.
“SCN-ASO 7” was evaluated for its ability to inhibit the sodium ion current in PC3 cells using “CoroNa Green” as follows.
[ASO Treatment] PC3 cells grown in 35 mm culture dish containing 2 mL F-12K medium were treated with “SCN-ASO 7” at 0 zM (negative control), 100 zM or 1 aM.
[CoroNa Assay] 30 hours later, the cells were washed with 2 mL HBSS (Hank's Balanced Salt Solution, Cat. Number 14025-092, Life Technologies), and then charged with 2 mL fresh HBSS. Then the cells were treated with 5 μM “CoroNa Green” (Cat. Number C36676, Life Technologies) at 37° C. 30 min later, the cells were washed 2× with 2 mL HBSS, and charged with 2 mL fresh HBSS. The culture dish was mounted on an Olympus fluorescence microscope equipped with a digital video camera to continuously capture the green fluorescence images of the cells. The cells were acutely treated with 100 mM NaCl, and then the changes in fluorescence cellular images were digitally recorded over a period of 3 min. There were about 4 cells per frame on average. The fluorescence intensities from each individual cell were traced at the resolution of a second. The traces of the intracellular fluorescence intensities from individual cells were overlaid and averaged at each time point. The average of the traces from the individual cells of each ASO concentration were plotted as provided in FIG. 30A using ImageJ program (version 1.50i, NIH). The average fluorescence intensity trace was taken as the individual intra-cellular sodium concentration trace for the cells treated with “SCN-ASO 7” at 0 (negative control), 100 or 1,000 zM.
“SCN-ASO 3” was evaluated for its ability to inhibit the sodium current in PC3 cells using “CoroNa Green” according to the protocol described in “SCN9A Example 5”, unless noted otherwise.
“SCN-ASO 8” was evaluated for its ability to inhibit the sodium current in PC3 cells using “CoroNa Green” according to the protocol described in “SCN9A Example 3”, unless noted otherwise.

Row | Substance | maximum therapeutic efficacy based on the von Frey scores in Day 19 [1] | Tm (complementary 10-mer DNA) | Tm (complementary 10-mer RNA) | also measured
1 | Fethoc-GA(5)T-A(5)TG-A(5)GT-G(6)CA(5)-C(1O2)TA(5)-A-NH2 (GATATGAGTGCACTAA; splice-switching; all peptide nucleic acid (PNA), [A(5)] at 2, 4, 7, 12, 15, [G(6)] at 10, [C(1O2)] at 13, 5' {Fethoc}, 3' {NH2}; peptide nucleic acid backbone) [SCN-ASO 35] | 52% |  |  | 
2 | Fmoc-GTA-GAT-CAC-T-NH2 (GTAGATCACT; all peptide nucleic acid (PNA), 5' {Fmoc}, 3' {NH2}; model 10-mer peptide nucleic acid written N to C) [PNA 10-1, reference compound] |  | 51 °C | 55 °C | 
3 | Fethoc-A(5)TA(5)-CC(1O2)C-TG(6)A-A(5)TC-TG(6)T-NH2 (ATACCCTGAATCTGT; splice-switching; all peptide nucleic acid (PNA), [A(5)] at 1, 3, 10, [C(1O2)] at 5, [G(6)] at 8, 14, 5' {Fethoc}, 3' {NH2}; peptide nucleic acid backbone) [SCN-ASO 36] | 0% |  |  | 
4 | Fethoc-TA(5)A-A(5)AG(6)-TG(6)T-A(5)CC(1O2)-TA(5)A-A(5)-NH2 (TAAAAGTGTACCTAAA; splice-switching; all peptide nucleic acid (PNA), [A(5)] at 2, 4, 10, 14, 16, [G(6)] at 6, 8, [C(1O2)] at 12, 5' {Fethoc}, 3' {NH2}; peptide nucleic acid backbone) [SCN-ASO 21] | 93% |  |  | 
5 | Fmoc-GTA(5)-GA(5)T-C(1O2)AC-T-NH2 (GTAGATCACT; all peptide nucleic acid (PNA), [A(5)] at 3, 5, [C(1O2)] at 7, 5' {Fmoc}, 3' {NH2}; model 10-mer peptide nucleic acid written N to C) [PNA 10-7] |  | 69 °C | 69 °C | ΔTm (Tm value - Tm value of PNA 10-1) (complementary 10-mer DNA): +18 °C; ΔTm (Tm value - Tm value of PNA 10-1) (complementary 10-mer RNA): +18 °C
6 | Fmoc-TA(5)A-A(5)TA(5)-CGC(1O2)-AA(5)A-A(5)AC-A(5)A-NH2 (TAAATACGCAAAAACAA; chemistry not fully specified) [SCN-ASO 8] | 61% |  |  | Tm Value, 10-mer DNA against C-Terminal (10-mer complementary DNA): 68.6 °C; Tm Value, 10-mer DNA against N-Terminal (10-mer complementary DNA): 74.0 °C; decrease of expression levels of SCN9A exons 4-6 (SYBR Green) (SCN9A mRNA; 10 zM): 50-70%; decrease of expression levels of SCN9A exons 4-6 (SYBR Green) (SCN9A mRNA; 100 zM): 70-80%; decrease of sodium current (CoroNa) ([2]; PC3 cells, 100 zM): 30%; decrease of sodium current / sodium channel activity (CoroNa) ([2]; PC3 cells, 1,000 zM): 31%; average cellular fluorescence intensity (CoroNa Green) ([2]; PC3 cells, 1,000 zM, at 100 sec after 100 mM NaCl): 89.7 arbitrary unit
7 | Fmoc-GTA(5)-GA(5)T-CA(5)C-T-NH2 (GTAGATCACT; all peptide nucleic acid (PNA), [A(5)] at 3, 5, 8, 5' {Fmoc}, 3' {NH2}; model 10-mer peptide nucleic acid written N to C) [PNA 10-4] |  | 66 °C | 66 °C | ΔTm (Tm value - Tm value of PNA 10-1) (complementary 10-mer DNA): +15 °C; ΔTm (Tm value - Tm value of PNA 10-1) (complementary 10-mer RNA): +11 °C
8 | Fethoc-AA(5)G-A(5)C(12)T-CG(6)G-A(5)GC(1O2)-TA(5)-NH2 (AAGACTCGGAGCTA; all peptide nucleic acid (PNA), [A(5)] at 2, 4, 10, 14, [C(12)] at 5, [G(6)] at 8, [C(1O2)] at 12, 5' {Fethoc}, 3' {NH2}) [SCN-ASO 37] | 22% |  |  | 

— patent US12624068B2, “Exon skipping by peptide nucleic acid derivatives” (OliPass Corporation, priority 2016, dated 2026)
